We go through 14 compounds from paper PMC6331912, “7-Methoxytacrine-p-Anisidine Hybrids as Novel Dual Binding Site Acetylcholinesterase Inhibitors for Alzheimer’s Disease Treatment” (Molecules, 2015).

Holding throughout (format): biochemical
The target in experiment [1] is human plasma butyrylcholinesterase (hBChE) (Homo sapiens, UniProt P06276). As to the kind of experiment: biochemical. The conditions noted are these: for IC50: mean of at least three experiments, substrate BTCh, pH 7.4, 37 °C, read-out: hBChE IC50 ± SEM; for fold weaker inhibitor of hBChE related to tacrine: ratio of IC50 to tacrine.
Experiment [2] addresses T1, human recombinant acetylcholinesterase (hAChE) (Homo sapiens, UniProt P22303).
T1 construct: purchased Sigma-Aldrich (Prague, Czech Republic)
As to the kind of experiment: biochemical. As to conditions: for IC50: mean of at least three experiments, substrate ATCh, pH 7.4, 37 °C, read-out: hAChE IC50 ± SEM; for Selectivity for hAChE: ratio hBChE IC50/hAChE IC50; for fold weaker inhibitor of hAChE compared to tacrine: ratio of IC50 to tacrine.

For another experiment, the target named is T2, AChE (Homo sapiens, UniProt P22303).
T2 construct: purchased Sigma-Aldrich (Prague, Czech Republic)
As to the kind of experiment: Kinetic study of AChE inhibition (Ellman's method, nonlinear regression, Lineweaver-Burk). As to conditions: for Ki: estimated by nonlinear regression analysis, substrate ATCh; for type of inhibition: p < 0.05, apparent Vmax decreased, Km unchanged with increasing inhibitor concentration. The method, then:
[…]. We used a kinetic assay in order to obtain information about the mode of inhibition and binding site of the target compounds. The mechanism of inhibition was analyzed by recording substrate concentration—enzymatic reaction rate curves in the presence of different concentrations of compounds 15 and 19. Analysis confirmed a non-competitive type of inhibition (p < 0.05) for both compounds. With increasing concentration of inhibitor, apparent Vmax decreased and Km remained unchanged. […] […]. Such a pattern of inhibition is also characteristic for donepezil and it may indicate prevailing interactions of the enzyme with PAS [36]. PAS of AChE is associated with the ability to induce Aβ aggregation, thus, compounds interacting with this region may inhibit such a process and could have additional benefit for the treatment of AD [37].
Figure 3 Steady-state inhibition of AChE hydrolysis of acetylthiocholine (ATCh) by compounds 15 and 19. […]. Lines were derived from a weighted least-squares analysis of data.
The kinetic study of AChE inhibition was performed by using Ellman’s method (described above). The type of inhibition was elucidated from the nonlinear regression analysis. Results for each type model of inhibition (competitive, noncompetitive, uncompetitive and mixed) were compared with sum-of-squares F-test. […]. Linear regression was used for calculation of Lineweaver-Burk plots. All calculations were performed using the GraphPad Prism software.

T2 sequence (P22303 32-614): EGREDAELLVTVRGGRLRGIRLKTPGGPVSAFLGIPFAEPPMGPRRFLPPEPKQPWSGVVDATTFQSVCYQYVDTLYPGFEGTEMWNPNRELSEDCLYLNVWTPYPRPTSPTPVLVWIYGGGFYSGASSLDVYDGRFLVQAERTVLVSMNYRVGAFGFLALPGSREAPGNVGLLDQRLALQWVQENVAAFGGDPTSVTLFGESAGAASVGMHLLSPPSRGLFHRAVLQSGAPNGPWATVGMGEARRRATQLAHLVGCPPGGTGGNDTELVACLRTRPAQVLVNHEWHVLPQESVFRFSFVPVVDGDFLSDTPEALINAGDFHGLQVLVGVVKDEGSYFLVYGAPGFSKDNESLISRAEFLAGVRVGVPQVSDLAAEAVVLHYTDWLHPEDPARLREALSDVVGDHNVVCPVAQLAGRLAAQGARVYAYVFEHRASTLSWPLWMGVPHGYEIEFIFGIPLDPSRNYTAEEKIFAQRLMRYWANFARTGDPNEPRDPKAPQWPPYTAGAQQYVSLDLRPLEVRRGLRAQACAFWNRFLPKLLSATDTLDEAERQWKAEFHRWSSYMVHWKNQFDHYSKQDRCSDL
T1 sequence (P22303 32-614): as above
human plasma butyrylcholinesterase (hBChE), sequence (P06276 29-602): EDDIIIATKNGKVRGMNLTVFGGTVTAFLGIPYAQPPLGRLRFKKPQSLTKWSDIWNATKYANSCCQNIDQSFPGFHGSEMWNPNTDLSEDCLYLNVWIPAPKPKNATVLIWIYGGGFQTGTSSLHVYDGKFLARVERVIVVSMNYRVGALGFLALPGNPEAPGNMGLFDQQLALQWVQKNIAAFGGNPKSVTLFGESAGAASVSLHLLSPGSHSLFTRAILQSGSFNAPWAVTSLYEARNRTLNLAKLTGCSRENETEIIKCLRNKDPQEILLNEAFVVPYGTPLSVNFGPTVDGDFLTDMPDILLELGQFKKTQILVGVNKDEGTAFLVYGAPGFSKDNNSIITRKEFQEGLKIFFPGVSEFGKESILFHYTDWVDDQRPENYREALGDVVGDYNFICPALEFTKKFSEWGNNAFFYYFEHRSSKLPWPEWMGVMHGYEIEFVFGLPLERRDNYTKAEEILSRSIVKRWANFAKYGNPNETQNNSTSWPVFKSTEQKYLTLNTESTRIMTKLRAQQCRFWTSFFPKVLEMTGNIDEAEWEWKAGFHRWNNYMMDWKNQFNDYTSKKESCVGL

As a reminder, the IC50 is the midpoint of a concentration-inhibition curve. On to `COc1ccc(NC(=O)NCCCCCCCCNc2c3c(nc4ccc(OC)cc24)CCCC3)cc1.O=C(O)C(O)C(O)C(=O)O` [compound 22, 3-{8-[(7-Methoxy-1,2,3,4-tetrahydroacridin-9-yl)amino]octyl}-1-(4-methoxyphenyl)urea-2,3‑dihydroxy-succinate], for which, in experiment [1], the IC50 stood at 1.34 ± 0.2 µM and the “fold weaker inhibitor of hBChE related to tacrine” value came to 16.8 fold. In experiment [2], the IC50 was determined as 2.14 ± 0.6 µM and the “Selectivity for hAChE” value is on record as 0.63.

Turning to `COc1ccc(NC(=S)NCCCNc2c3c(nc4ccc(OC)cc24)CCCC3)cc1.O=C(O)C(O)C(O)C(=O)O` [compound 10, 3-{3-[(7-Methoxy-1,2,3,4-tetrahydroacridin-9-yl)amino]propyl}-1-(4-methoxyphenyl)thiourea-2,3‑dihydroxy-succinate], in experiment [1], the IC50 is 8.73 ± 0.1 µM. Moreover, in experiment [2], the IC50 was found to be 6.36 ± 0.5 µM and the “Selectivity for hAChE” value is listed as 1.37.

For the compound `COc1ccc(NC(=S)NCCCCCNc2c3c(nc4ccc(OC)cc24)CCCC3)cc1.O=C(O)C(O)C(O)C(=O)O` [compound 12, 3-{5-[(7-Methoxy-1,2,3,4-tetrahydroacridin-9-yl)amino]pentyl}-1-(4-methoxyphenyl)thiourea-2,3‑dihydroxy-succinate], the IC50 in experiment [1] was 13.5 ± 0.7 µM. Moreover, in experiment [2], the IC50 came out at 4.9 ± 0.3 µM and the “Selectivity for hAChE” value came out at 2.71.

By Ki is commonly meant a measure of affinity in units of concentration, obtained from inhibition or displacement. For `COc1ccc(NC(=O)NCCCCCNc2c3c(nc4ccc(OC)cc24)CCCC3)cc1.O=C(O)C(O)C(O)C(=O)O` [compound 19, 3-{5-[(7-Methoxy-1,2,3,4-tetrahydroacridin-9-yl)amino]pentyl}-1-(4-methoxyphenyl)urea-2,3‑dihydroxy-succinate], the IC50 in experiment [1] was 10.9 ± 1.6 µM. Moreover, on AChE, the Ki is 0.453 ± 0.0251 µM and the type of inhibition entry is listed as “non-competitive”. In addition, in experiment [2], the IC50 was 1.35 ± 0.3 µM, the “Selectivity for hAChE” value was found to be 8.07 and the “fold weaker inhibitor of hAChE compared to tacrine” value was 4.2 fold.

For `COc1ccc(NC(=O)NCCNc2c3c(nc4ccc(OC)cc24)CCCC3)cc1.O=C(O)C(O)C(O)C(=O)O` [compound 16, 3-{2-[(7-Methoxy-1,2,3,4-tetrahydroacridin-9-yl)amino]ethyl}-1-(4-methoxyphenyl)urea-2,3‑dihydroxy-succinate], the IC50 in experiment [1] came out at 11.9 ± 2.3 µM. For the same compound, in experiment [2], the IC50 amounted to 44.9 ± 1.4 µM and the “Selectivity for hAChE” value was 0.27.

Consider `COc1ccc(NC(=O)NCCCCCCCNc2c3c(nc4ccc(OC)cc24)CCCC3)cc1.O=C(O)C(O)C(O)C(=O)O` [compound 21, 3-{7-[(7-Methoxy-1,2,3,4-tetrahydroacridin-9-yl)amino]heptyl}-1-(4-methoxyphenyl)urea-2,3‑dihydroxy-succinate], for which the IC50 in experiment [1] was determined as 1.69 ± 0.2 µM. In addition, in experiment [2], the 50% inhibitory concentration (IC50) was 1.72 ± 0.3 µM and the “Selectivity for hAChE” value was determined as 0.98.

Take `COc1ccc(NC(=S)NCCCCCCCCNc2c3c(nc4ccc(OC)cc24)CCCC3)cc1.O=C(O)C(O)C(O)C(=O)O` [compound 15, 3-{8-[(7-Methoxy-1,2,3,4-tetrahydroacridin-9-yl)amino]octyl}-1-(4-methoxyphenyl)thiourea-2,3‑dihydroxy-succinate]: the IC50 in experiment [1] is 10.2 ± 4.7 µM. Also, on AChE, the Ki was 1.33 ± 0.125 µM and the type of inhibition result is reported as “non-competitive”. Further, in experiment [2], the IC50 turned out to be 1.36 ± 0.4 µM, the “Selectivity for hAChE” value is given as 7.53 and the “fold weaker inhibitor of hAChE compared to tacrine” value was found to be 4.2 fold.

Take `COc1ccc(NC(=O)NCCCCCCNc2c3c(nc4ccc(OC)cc24)CCCC3)cc1.O=C(O)C(O)C(O)C(=O)O` [compound 20, 3-{6-[(7-Methoxy-1,2,3,4-tetrahydroacridin-9-yl)amino]hexyl}-1-(4-methoxyphenyl)urea-2,3‑dihydroxy-succinate]: the IC50 in experiment [1] was 5.75 ± 0.4 µM; in experiment [2], 4.56 ± 0.9 µM. Further, in experiment [2], the “Selectivity for hAChE” value was 1.26.

With `COc1ccc(NC(=S)NCCNc2c3c(nc4ccc(OC)cc24)CCCC3)cc1.O=C(O)C(O)C(O)C(=O)O` [compound 9, 3-{2-[(7-Methoxy-1,2,3,4-tetrahydroacridin-9-yl)amino]ethyl}-1-(4-methoxyphenyl)thiourea-2,3‑dihydroxy-succinate], in experiment [1], the IC50 was 1.03 ± 0.1 µM and the “fold weaker inhibitor of hBChE related to tacrine” value is listed as 12.9 fold. Further, in experiment [2], the IC50 was determined as 43.6 ± 2.1 µM and the “Selectivity for hAChE” value was 0.02.

In the case of `COc1ccc(NC(=S)NCCCCCCNc2c3c(nc4ccc(OC)cc24)CCCC3)cc1.O=C(O)C(O)C(O)C(=O)O` [compound 13, 3-{6-[(7-Methoxy-1,2,3,4-tetrahydroacridin-9-yl)amino]hexyl}-1-(4-methoxyphenyl)thiourea-2,3‑dihydroxy-succinate], the figures for the IC50 in experiment [1] and in experiment [2] were 9.35 ± 0.1 µM and 10.3 ± 1.3 µM, respectively. In addition, the “Selectivity for hAChE” value in experiment [2] is given as 0.90.

For the compound `COc1ccc(NC(=S)NCCCCNc2c3c(nc4ccc(OC)cc24)CCCC3)cc1.O=C(O)C(O)C(O)C(=O)O` [compound 11, 3-{4-[(7-Methoxy-1,2,3,4-tetrahydroacridin-9-yl)amino]butyl}-1-(4-methoxyphenyl)thiourea-2,3‑dihydroxy-succinate], in experiment [1], the IC50 amounted to 6.04 ± 0.1 µM. Further, in experiment [2], the half-maximal inhibitory concentration (IC50) came out at 32.8 ± 9.9 µM and the “Selectivity for hAChE” value was determined as 0.18.

Take `COc1ccc(NC(=O)NCCCNc2c3c(nc4ccc(OC)cc24)CCCC3)cc1.O=C(O)C(O)C(O)C(=O)O` [compound 17, 3-{3-[(7-Methoxy-1,2,3,4-tetrahydroacridin-9-yl)amino]propyl}-1-(4-methoxyphenyl)urea-2,3‑dihydroxy-succinate]: the IC50 in experiment [1] is 15.9 ± 4.1 µM. Also, in experiment [2], the IC50 turned out to be 26.9 ± 5.9 µM and the “Selectivity for hAChE” value was found to be 0.59.

With `COc1ccc(NC(=S)NCCCCCCCNc2c3c(nc4ccc(OC)cc24)CCCC3)cc1.O=C(O)C(O)C(O)C(=O)O` [compound 14, 3-{7-[(7-Methoxy-1,2,3,4-tetrahydroacridin-9-yl)amino]heptyl}-1-(4-methoxyphenyl)thiourea-2,3‑dihydroxy-succinate], in experiment [1], the IC50 was 3.13 ± 0.3 µM. Further, in experiment [2], the IC50 amounted to 3.96 ± 0.1 µM and the “Selectivity for hAChE” value amounted to 0.79.

`COc1ccc(NC(=O)NCCCCNc2c3c(nc4ccc(OC)cc24)CCCC3)cc1.O=C(O)C(O)C(O)C(=O)O` [compound 18, 3-{4-[(7-Methoxy-1,2,3,4-tetrahydroacridin-9-yl)amino]butyl}-1-(4-methoxyphenyl)urea-2,3‑dihydroxy-succinate]: the IC50 in experiment [1] was determined as 9.34 ± 0.1 µM. Besides, in experiment [2], the IC50 came to 13.8 ± 3.9 µM and the “Selectivity for hAChE” value is on record as 0.68.
